A word on the IC50: it is the midpoint of a concentration-inhibition curve.

SMILES strings stand for the structures.

The target of experiment [1] is T1, Glutathione reductase, mitochondrial (Homo sapiens, UniProt P00390).
T1 sequence (P00390 whole entry): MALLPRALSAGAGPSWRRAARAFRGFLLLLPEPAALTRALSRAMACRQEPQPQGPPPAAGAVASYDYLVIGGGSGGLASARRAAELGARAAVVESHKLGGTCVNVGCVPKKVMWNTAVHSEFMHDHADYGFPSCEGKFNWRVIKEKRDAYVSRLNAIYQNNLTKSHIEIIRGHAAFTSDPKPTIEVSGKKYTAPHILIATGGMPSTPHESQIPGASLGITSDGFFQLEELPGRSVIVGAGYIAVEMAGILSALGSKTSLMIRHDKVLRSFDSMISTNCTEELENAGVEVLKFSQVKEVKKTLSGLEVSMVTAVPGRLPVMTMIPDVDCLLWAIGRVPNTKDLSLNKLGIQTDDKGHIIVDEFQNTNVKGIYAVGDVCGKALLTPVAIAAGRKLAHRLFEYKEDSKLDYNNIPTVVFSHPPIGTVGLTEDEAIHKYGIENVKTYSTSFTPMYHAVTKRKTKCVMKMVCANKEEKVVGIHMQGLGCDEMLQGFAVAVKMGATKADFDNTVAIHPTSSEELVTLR
Description: Inhibition of human glutathione reductase.

The next experiment concerns the target Trypanothione reductase (Trypanosoma cruzi, UniProt P28593). The experiment can be described thus: Inhibition of Trypanosoma cruzi TR.
In experiment [2] the test system is Trypanosoma brucei brucei. Description: Antitrypanosomal activity against Trypanosoma brucei brucei. It is filed as functional, organism-based.

Chain of Trypanothione reductase (P28593 whole entry): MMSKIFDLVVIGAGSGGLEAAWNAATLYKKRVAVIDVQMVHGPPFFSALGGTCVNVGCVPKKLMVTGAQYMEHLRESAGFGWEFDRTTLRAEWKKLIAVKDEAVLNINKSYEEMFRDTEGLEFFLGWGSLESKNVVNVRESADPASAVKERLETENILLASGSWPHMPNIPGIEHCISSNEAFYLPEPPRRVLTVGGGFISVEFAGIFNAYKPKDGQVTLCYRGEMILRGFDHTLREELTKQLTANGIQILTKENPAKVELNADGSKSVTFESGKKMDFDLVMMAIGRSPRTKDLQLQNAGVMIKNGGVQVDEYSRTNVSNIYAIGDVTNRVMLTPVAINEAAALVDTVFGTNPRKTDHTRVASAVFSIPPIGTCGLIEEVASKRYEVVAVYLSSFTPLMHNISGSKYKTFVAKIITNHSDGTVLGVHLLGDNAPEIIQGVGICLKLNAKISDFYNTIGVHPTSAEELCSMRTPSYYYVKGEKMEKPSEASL

Regarding `NC(=NCCCNCCCCCCCNCCCN=C(N)NC1CCCCCC1)NC1CCCCCC1`, the IC50 was above 100 µM in experiment [1], 17.7 µM against Trypanothione reductase and 0.18 µM in experiment [2].
On the same counts, the results for `NC(=NCCCNCCCNCCCN=C(N)NCC(c1ccccc1)c1ccccc1)NCC(c1ccccc1)c1ccccc1` are above 100 µM, 3.6 µM and 2.05 µM.
In the same order, the values of `N=C(NCCCNCCCNCCCNC(=N)NC(=N)NCCC(c1ccccc1)c1ccccc1)NC(=N)NCCC(c1ccccc1)c1ccccc1` are above 100 µM, 3.68 µM and 1.76 µM.
On the same counts, the results for `NC(=NCCCNCCCCCCCNCCCN=C(N)NCC(c1ccccc1)c1ccccc1)NCC(c1ccccc1)c1ccccc1` are above 100 µM, 4.72 µM and 0.5 µM.
Consider `N=C(NCCCNCCCCCCCNCCCNC(=N)NC(=N)NCC(c1ccccc1)c1ccccc1)NC(=N)NCC(c1ccccc1)c1ccccc1`, for which the IC50 is above 100 µM in experiment [1], 1.66 µM on Trypanothione reductase and 0.45 µM in experiment [2].
On the same counts, the results for `N=C(NCCCNCCCNCCCNC(=N)NC(=N)NCC(c1ccccc1)c1ccccc1)NC(=N)NCC(c1ccccc1)c1ccccc1` are above 100 µM, 4.16 µM and 0.18 µM.
In the same order, the values of `N=C(NCCCNCCCCNCCCNC(=N)NCC(c1ccccc1)c1ccccc1)NCC(c1ccccc1)c1ccccc1` are above 100 µM, 4.56 µM and 3.35 µM.
As to `N=C(NCCCNCCCCNCCCNC(=N)NC(=N)NCC(c1ccccc1)c1ccccc1)NC(=N)NCC(c1ccccc1)c1ccccc1`, the IC50 in experiment [1] is above 100 µM; at Trypanothione reductase it was 2.74 µM; in experiment [2], 1.05 µM.
In the same order, the values of `N=C(NCCCNCCCCNCCCNC(=N)NC(=N)NCCC(c1ccccc1)c1ccccc1)NC(=N)NCCC(c1ccccc1)c1ccccc1` are above 100 µM, 2.96 µM and 0.19 µM.
With `N=C(NCCCNCCCCCCCNCCCNC(=N)NC(=N)NCCC(c1ccccc1)c1ccccc1)NC(=N)NCCC(c1ccccc1)c1ccccc1`, the IC50 in experiment [1] is above 100 µM; on Trypanothione reductase it was 0.95 µM; in experiment [2] it was 0.62 µM.
On the same counts, the results for `NC(=NCCCNCCCCCCCNCCCN=C(N)NCCC(c1ccccc1)c1ccccc1)NCCC(c1ccccc1)c1ccccc1` are above 100 µM, 2.24 µM and 0.61 µM.
On the same counts, the results for `N=C(NCCCNCCCCNCCCNC(=N)NCCC(c1ccccc1)c1ccccc1)NCCC(c1ccccc1)c1ccccc1` are above 100 µM, 2.97 µM and 2.4 µM.
On the same counts, the results for `N=C(NCCCNCCCNCCCNC(=N)NCCC(c1ccccc1)c1ccccc1)NCCC(c1ccccc1)c1ccccc1` are above 100 µM, 5.07 µM and 1.95 µM.
`NC(=NCCCNCCCCCCCNCCCN=C(N)NCc1ccccc1)NCc1ccccc1`: the IC50 was above 100 µM in experiment [1], 69.5 µM at Trypanothione reductase and 0.09 µM in experiment [2].

(Values after ChEMBL document CHEMBL1148496, “Novel alkylpolyaminoguanidines and alkylpolyaminobiguanides with potent antitrypanosomal activity” (Bioorg Med Chem Lett, 2006).)
